Experiments:
[1] = tested on: E2-25K; test: In vitro K48 polyubiquitination reaction with E2-25K; type: biochemical; conditions: purified E2-25K, increasing CR (50–500 µM), 500 µM ubiquitin, 37 °C
Protocol: Figure 5 CR inhibits K48- and K63- polyubiquitination in vitro. (a) Interacting surface of ubiquitin when complex with E2-25K and Ubc13 compared with the surface used for CR binding. (b,c) CR inhibits K48- (b) and K63-ubiquitinations (c). First, mono ubiquitin was mixed with UBA1, E2-25K or complex Mms2/Ubc13, and 0–500 µM CR in the presence or absence of ATP regeneration system. Then the mixture was incubated at 37 °C for […]. The reaction was stopped by adding 5X SDS loading buffer and the results were analyzed with 15% SDS-PAGE.
(§1) For in vitro ubiquitination assays, 500 µM of ubiquitin was used for each ubiquitination reaction as described previously, in the absence or presence of 50–500 µM of CR. The reactions were incubated at 37 °C for 4 h and 16 h for K63- and K48 polyubiquitination respectively. The reaction was terminated by adding 5X SDS sampling buffer and results were subjected to 15% SDS-PAGE followed by Coomassie Blue staining for analyses. […] The generation of GST-ubiquitin from GST-Ubiquitin-HA as the mobility shifts were analyzed on 12.5% SDS-PAGE visualized by Coomassie blue staining. Band intensities were quantified by ImageJ [55] and used to generate the IC50 curves (log inhibitor vs. normalized response with variable slope) by GraphPad Prism version 6.0 for Windows (GraphPad Software, San Diego, CA, USA, www.graphpad.com).

[2] = target: USP5 (Homo sapiens); test: Deubiquitination assay, cleavage of GST-Ubiquitin-HA by USP5 (SDS-PAGE band intensity); type: biochemical
Protocol: as §1, with “CR.” for “CR. The reactions were incubated at 37 °C for 4 h and 16 h for K63- and K48 polyubiquitination respectively. The reaction was terminated by adding 5X SDS sampling buffer and results were subjected to 15% SDS-PAGE followed by Coomassie Blue staining for analyses.”

Chain of USP5 (Homo sapiens) (P45974 2-858, other chains not shown): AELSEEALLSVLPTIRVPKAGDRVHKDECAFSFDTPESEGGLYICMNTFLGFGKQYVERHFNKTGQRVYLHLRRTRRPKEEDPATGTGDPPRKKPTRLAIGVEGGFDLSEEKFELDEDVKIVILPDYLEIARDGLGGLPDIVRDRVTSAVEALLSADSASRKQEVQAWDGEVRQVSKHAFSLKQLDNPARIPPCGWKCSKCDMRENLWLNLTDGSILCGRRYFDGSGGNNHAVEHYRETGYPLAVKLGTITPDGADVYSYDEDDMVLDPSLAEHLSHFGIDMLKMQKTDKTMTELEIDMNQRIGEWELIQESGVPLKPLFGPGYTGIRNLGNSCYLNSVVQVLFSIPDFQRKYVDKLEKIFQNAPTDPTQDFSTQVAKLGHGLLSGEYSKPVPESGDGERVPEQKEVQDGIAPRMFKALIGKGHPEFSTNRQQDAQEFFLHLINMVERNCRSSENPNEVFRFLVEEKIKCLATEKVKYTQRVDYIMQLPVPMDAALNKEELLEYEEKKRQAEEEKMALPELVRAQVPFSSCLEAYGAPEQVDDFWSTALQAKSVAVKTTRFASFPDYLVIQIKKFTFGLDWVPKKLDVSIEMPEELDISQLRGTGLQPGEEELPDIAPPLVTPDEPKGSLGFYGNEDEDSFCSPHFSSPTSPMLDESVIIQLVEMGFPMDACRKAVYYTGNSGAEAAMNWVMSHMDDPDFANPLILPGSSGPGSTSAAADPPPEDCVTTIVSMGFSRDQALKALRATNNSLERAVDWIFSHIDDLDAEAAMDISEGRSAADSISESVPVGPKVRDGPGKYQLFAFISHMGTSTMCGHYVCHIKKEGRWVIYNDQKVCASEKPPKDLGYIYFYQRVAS

In the case of `Nc1c(/N=N/c2ccc(-c3ccc(/N=N/c4cc(S(=O)(=O)O)c5ccccc5c4N)cc3)cc2)cc(S(=O)(=O)O)c2ccccc12` [CR, Congo red], the “Inhibition of K48 polyubiquitination” value [1] is reported as “effectively inhibited by CR in a dose-dependent manner” and the IC50 [2] is reported as 13.4 ± 2.64 µM.
